{"source": "patent US20250179559A1", "about": "“DUAL-LUCIFERASE REPORTER GENE DETECTION SYSTEM, FLUORESCENCE DETECTION KIT, AND METHOD FOR DETECTING LUMINESCENT SIGNAL OF LUCIFERASE” (BGI SHENZHEN, priority 2022, published 2025)"}
{"system": "Gaussia luciferase mutant G2-F11", "assay": "Luminescence intensity of substrates with Gaussia luciferase mutant G2-F11", "format": "biochemical, Gaussia princeps", "conditions": "mutant G2-F11, among tested substrates", "description": "(§1) The two luciferases were diluted to a concentration of 1 μg/mL with a diluent (50 mM Tris-HCl pH 8.0, 100 mM NaCl, 0.1% (v/v) Tween-20), and 10 μL of each luciferase was taken and added to a black 96-well plate. The substrate was diluted to 10 μM with the same diluent, 90 μL of the substrate was taken add into the 96-well plate containing the above luciferases (90 μL/well), and the luminescence intensity was read by using a light-emitting module of a microplate reader.\n(§2) According to the method as described in Example 1, an expression vector containing the gene of the Gaussia luciferase mutant and the gene of the Pleuromamma xiphias luciferase mutant was constructed, a recombinant strain was constructed, the mutant-type luciferases were expressed, and the luminous intensity of substrates and luciferases was detected."}
{"molecule": "O=c1c(Cc2ccc(F)cc2)nc2c(Cc3ccccc3)[nH]c(-c3ccc(O)cc3)cn1-2", "note": "[f-CTZ]", "fluorescence intensity compared among substrates (in words)": "highest fluorescence intensity"}
{"system": "Gaussia luciferase mutant E1-A3", "assay": "Luminescence intensity of substrates with Gaussia luciferase mutant E1-A3", "format": "biochemical, Gaussia princeps", "conditions": "mutant E1-A3, among tested substrates", "description": "as §1, §2"}
{"molecule": "O=c1c(Cc2ccc(F)cc2)nc2c(Cc3ccccc3)[nH]c(-c3ccc(O)cc3)cn1-2", "note": "[f-CTZ]", "fluorescence intensity compared among substrates (in words)": "highest fluorescence intensity"}
{"system": "wild-type Gaussia luciferase (WT-Gluc)", "assay": "Luminescence intensity of substrates with wild-type Gaussia luciferase", "format": "biochemical, Gaussia princeps", "conditions": "luciferase 1 μg/mL (10 μL), substrate 10 μM (90 μL), microplate reader", "description": "(§3) [drawing 6] • (3) According to the conventional methods, such as the method disclosed in PCT/CN2017/082180, an expression vector (plasmid) containing the wild-type Gaussia luciferase gene and the wild-type Pleuromamma xiphias luciferase gene was constructed. The plasmid was transformed into Escherichia coli OrigamiB (DE3), which was coated on a plate, and a single colony was picked from the plate, cultured overnight at 37° C., diluted at a ratio of 1:100 on the next day, transferred to 3 mL of fresh LB medium containing ampicillin resistance (100 μg/mL), cultured with shaking at 37° C. and 200 rpm for 4 hours, and cooled on ice for 1 hour. The inducer IPTG was added at a final concentration of 1 mM and the induction was preformed overnight at 16° C. On the next day, the bacteria were collected by centrifugation, resuspended with 500 μL lysate (50 mM Tris-HCl pH 8.0, 500 mM NaCl, 0.2% lysozyme, PMSF), lysed for 20 minutes at room temperature, frozen with liquid nitrogen and thawed for 3 times, and centrifuged for 30 minutes at 18,000 g. The supernatant was taken, which was purified by using a centrifugal Ni column. The protein eluted by Ni column was dialyzed with dialysis buffer (25 mM Tris, pH 8.0, 250 mM NaCl) at 4° C. overnight. The concentration of luciferase was accurately determined by using a BCA quantitative kit (Thermoscientific™ Pierce™ BCA protein assay kit). The two luciferases were diluted to a concentration of 1 μg/mL with a diluent (50 mM Tris-HCl pH 8.0, 100 mM NaCl, 0.1% (v/v) Tween-20), and 10 μL of each luciferase was taken and added to a black 96-well plate. The substrate was diluted to 10 μM with the same diluent, 90 μL of the substrate was taken add into the 96-well plate containing the above luciferases (90 μL/well), and the luminescence intensity was read by using a light-emitting module of a microplate reader. The test data of the Gaussia luciferase and the Pleuromamma xiphias luciferase on different substrates were shown in Table 1, in which the relative intensity is a percentage relative to the activity of wild-type Pleuromamma xiphias luciferase and compound N0. […] That is, in this dual-luciferase reporter gene detection system, the optimal luminescent combination with high fluorescence brightness and low cross-interference obtained after screening is using f-CTZ to detect the Gaussia luciferase, and using N0 to detect the Pleuromamma xiphias luciferase."}
{"molecule": "O=c1c(Cc2ccc(O)cc2)nc2c(Cc3ccccc3)[nH]c(-c3cccc(O)c3)cn1-2", "note": "[Substrate N0]", "Gluc fluorescence intensity": 5338}
{"molecule": "O=c1c(Cc2ccc(O)cc2)nc2c(Cc3ccccc3)[nH]c(Cc3ccccc3)cn1-2", "note": "[Substrate N1]", "Gluc fluorescence intensity": 0}
{"molecule": "O=c1c(Cc2ccc(F)cc2)nc2c(Cc3ccccc3)[nH]c(Cc3ccccc3)cn1-2", "note": "[Substrate N2]", "Gluc fluorescence intensity": 0}
{"molecule": "CN(C)c1ccc(-c2cn3c(=O)c(Cc4ccc(O)cc4)nc-3c(Cc3ccccc3)[nH]2)cc1", "note": "[Substrate N3]", "Gluc fluorescence intensity": 263}
{"molecule": "CN(C)c1ccc(-c2cn3c(=O)c(Cc4ccc(F)cc4)nc-3c(Cc3ccccc3)[nH]2)cc1", "note": "[Substrate N4]", "Gluc fluorescence intensity": 17}
{"molecule": "Nc1ccc(-c2cn3c(=O)c(Cc4ccc(O)cc4)nc-3c(Cc3ccccc3)[nH]2)cc1", "note": "[Substrate N5]", "Gluc fluorescence intensity": 457}
{"molecule": "Nc1ccc(-c2cn3c(=O)c(Cc4ccc(F)cc4)nc-3c(Cc3ccccc3)[nH]2)cc1", "note": "[Substrate N6]", "Gluc fluorescence intensity": 15}
{"molecule": "O=c1c(Cc2ccc(O)cc2)nc2c(Cc3ccccc3)[nH]c(/C=C/c3ccccc3)cn1-2", "note": "[Substrate N7]", "Gluc fluorescence intensity": 135}
{"molecule": "O=c1c(Cc2ccc(F)cc2)nc2c(Cc3ccccc3)[nH]c(/C=C/c3ccccc3)cn1-2", "note": "[Substrate N8]", "Gluc fluorescence intensity": 12}
{"molecule": "O=c1c(Cc2ccc(F)cc2)nc2c(Cc3ccccc3)[nH]c(-c3ccc(O)cc3)cn1-2", "note": "[f-CTZ]", "Gluc fluorescence intensity": 10186.5}
{"system": "wild-type Gaussia luciferase (WT-Gluc)", "assay": "Luminescence intensity of substrates with wild-type Gaussia luciferase", "format": "biochemical, Gaussia princeps", "conditions": "percentage relative to wild-type Pleuromamma xiphias luciferase with compound N0; substrate 10 μM", "description": "as §3", "units": {"Gluc relative intensity": "%"}}
{"molecule": "O=c1c(Cc2ccc(O)cc2)nc2c(Cc3ccccc3)[nH]c(-c3cccc(O)c3)cn1-2", "note": "[Substrate N0]", "Gluc relative intensity": 3.3}
{"molecule": "O=c1c(Cc2ccc(O)cc2)nc2c(Cc3ccccc3)[nH]c(Cc3ccccc3)cn1-2", "note": "[Substrate N1]", "Gluc relative intensity": 0.0}
{"molecule": "O=c1c(Cc2ccc(F)cc2)nc2c(Cc3ccccc3)[nH]c(Cc3ccccc3)cn1-2", "note": "[Substrate N2]", "Gluc relative intensity": 0.0}
{"molecule": "CN(C)c1ccc(-c2cn3c(=O)c(Cc4ccc(O)cc4)nc-3c(Cc3ccccc3)[nH]2)cc1", "note": "[Substrate N3]", "Gluc relative intensity": 0.2}
{"molecule": "CN(C)c1ccc(-c2cn3c(=O)c(Cc4ccc(F)cc4)nc-3c(Cc3ccccc3)[nH]2)cc1", "note": "[Substrate N4]", "Gluc relative intensity": 0.0}
{"molecule": "Nc1ccc(-c2cn3c(=O)c(Cc4ccc(O)cc4)nc-3c(Cc3ccccc3)[nH]2)cc1", "note": "[Substrate N5]", "Gluc relative intensity": 0.3}
{"molecule": "Nc1ccc(-c2cn3c(=O)c(Cc4ccc(F)cc4)nc-3c(Cc3ccccc3)[nH]2)cc1", "note": "[Substrate N6]", "Gluc relative intensity": 0.0}
{"molecule": "O=c1c(Cc2ccc(O)cc2)nc2c(Cc3ccccc3)[nH]c(/C=C/c3ccccc3)cn1-2", "note": "[Substrate N7]", "Gluc relative intensity": 0.1}
{"molecule": "O=c1c(Cc2ccc(F)cc2)nc2c(Cc3ccccc3)[nH]c(/C=C/c3ccccc3)cn1-2", "note": "[Substrate N8]", "Gluc relative intensity": 0.0}
{"molecule": "O=c1c(Cc2ccc(F)cc2)nc2c(Cc3ccccc3)[nH]c(-c3ccc(O)cc3)cn1-2", "note": "[f-CTZ]", "Gluc relative intensity": 6.4}
{"system": "wild-type Gaussia luciferase (WT-Gluc)", "assay": "Luminescence intensity of substrates with wild-type Gaussia luciferase", "format": "biochemical, Gaussia princeps", "conditions": "wild-type Gaussia luciferase, among tested substrates", "description": "as §3"}
{"molecule": "O=c1c(Cc2ccc(F)cc2)nc2c(Cc3ccccc3)[nH]c(-c3ccc(O)cc3)cn1-2", "note": "[f-CTZ]", "fluorescence intensity compared among substrates (in words)": "highest fluorescence intensity"}
{"system": "wild-type Pleuromamma xiphias luciferase (WT-Pxluc)", "assay": "Luminescence intensity of substrates with wild-type Pleuromamma xiphias luciferase", "format": "biochemical", "conditions": "luciferase 1 μg/mL (10 μL), substrate 10 μM (90 μL), microplate reader", "description": "as §3"}
{"molecule": "O=c1c(Cc2ccc(O)cc2)nc2c(Cc3ccccc3)[nH]c(-c3cccc(O)c3)cn1-2", "note": "[Substrate N0]", "Pxluc fluorescence intensity": 160037}
{"molecule": "O=c1c(Cc2ccc(O)cc2)nc2c(Cc3ccccc3)[nH]c(Cc3ccccc3)cn1-2", "note": "[Substrate N1]", "Pxluc fluorescence intensity": 1173}
{"molecule": "O=c1c(Cc2ccc(F)cc2)nc2c(Cc3ccccc3)[nH]c(Cc3ccccc3)cn1-2", "note": "[Substrate N2]", "Pxluc fluorescence intensity": 3026}
{"molecule": "CN(C)c1ccc(-c2cn3c(=O)c(Cc4ccc(O)cc4)nc-3c(Cc3ccccc3)[nH]2)cc1", "note": "[Substrate N3]", "Pxluc fluorescence intensity": 1520}
{"molecule": "CN(C)c1ccc(-c2cn3c(=O)c(Cc4ccc(F)cc4)nc-3c(Cc3ccccc3)[nH]2)cc1", "note": "[Substrate N4]", "Pxluc fluorescence intensity": 4137}
{"molecule": "Nc1ccc(-c2cn3c(=O)c(Cc4ccc(O)cc4)nc-3c(Cc3ccccc3)[nH]2)cc1", "note": "[Substrate N5]", "Pxluc fluorescence intensity": 4430}
{"molecule": "Nc1ccc(-c2cn3c(=O)c(Cc4ccc(F)cc4)nc-3c(Cc3ccccc3)[nH]2)cc1", "note": "[Substrate N6]", "Pxluc fluorescence intensity": 3464}
{"molecule": "O=c1c(Cc2ccc(O)cc2)nc2c(Cc3ccccc3)[nH]c(/C=C/c3ccccc3)cn1-2", "note": "[Substrate N7]", "Pxluc fluorescence intensity": 4430}
{"molecule": "O=c1c(Cc2ccc(F)cc2)nc2c(Cc3ccccc3)[nH]c(/C=C/c3ccccc3)cn1-2", "note": "[Substrate N8]", "Pxluc fluorescence intensity": 1426}
{"molecule": "O=c1c(Cc2ccc(F)cc2)nc2c(Cc3ccccc3)[nH]c(-c3ccc(O)cc3)cn1-2", "note": "[f-CTZ]", "Pxluc fluorescence intensity": 69138}
{"system": "wild-type Pleuromamma xiphias luciferase (WT-Pxluc)", "assay": "Luminescence intensity of substrates with wild-type Pleuromamma xiphias luciferase", "format": "biochemical", "conditions": "percentage relative to wild-type Pleuromamma xiphias luciferase with compound N0; substrate 10 μM", "description": "as §3", "units": {"Pxluc relative intensity": "%"}}
{"molecule": "O=c1c(Cc2ccc(O)cc2)nc2c(Cc3ccccc3)[nH]c(-c3cccc(O)c3)cn1-2", "note": "[Substrate N0]", "Pxluc relative intensity": 100}
{"molecule": "O=c1c(Cc2ccc(O)cc2)nc2c(Cc3ccccc3)[nH]c(Cc3ccccc3)cn1-2", "note": "[Substrate N1]", "Pxluc relative intensity": 0.7}
{"molecule": "O=c1c(Cc2ccc(F)cc2)nc2c(Cc3ccccc3)[nH]c(Cc3ccccc3)cn1-2", "note": "[Substrate N2]", "Pxluc relative intensity": 1.9}
{"molecule": "CN(C)c1ccc(-c2cn3c(=O)c(Cc4ccc(O)cc4)nc-3c(Cc3ccccc3)[nH]2)cc1", "note": "[Substrate N3]", "Pxluc relative intensity": 0.9}
{"molecule": "CN(C)c1ccc(-c2cn3c(=O)c(Cc4ccc(F)cc4)nc-3c(Cc3ccccc3)[nH]2)cc1", "note": "[Substrate N4]", "Pxluc relative intensity": 2.6}
{"molecule": "Nc1ccc(-c2cn3c(=O)c(Cc4ccc(O)cc4)nc-3c(Cc3ccccc3)[nH]2)cc1", "note": "[Substrate N5]", "Pxluc relative intensity": 2.8}
{"molecule": "Nc1ccc(-c2cn3c(=O)c(Cc4ccc(F)cc4)nc-3c(Cc3ccccc3)[nH]2)cc1", "note": "[Substrate N6]", "Pxluc relative intensity": 2.2}
{"molecule": "O=c1c(Cc2ccc(O)cc2)nc2c(Cc3ccccc3)[nH]c(/C=C/c3ccccc3)cn1-2", "note": "[Substrate N7]", "Pxluc relative intensity": 2.8}
{"molecule": "O=c1c(Cc2ccc(F)cc2)nc2c(Cc3ccccc3)[nH]c(/C=C/c3ccccc3)cn1-2", "note": "[Substrate N8]", "Pxluc relative intensity": 0.9}
{"molecule": "O=c1c(Cc2ccc(F)cc2)nc2c(Cc3ccccc3)[nH]c(-c3ccc(O)cc3)cn1-2", "note": "[f-CTZ]", "Pxluc relative intensity": 43.2}
{"system": "wild-type Pleuromamma xiphias luciferase (WT-Pxluc)", "assay": "Luminescence intensity of substrates with wild-type Pleuromamma xiphias luciferase", "format": "biochemical", "conditions": "wild-type Pleuromamma xiphias luciferase, among tested substrates", "description": "as §3"}
{"molecule": "O=c1c(Cc2ccc(O)cc2)nc2c(Cc3ccccc3)[nH]c(-c3cccc(O)c3)cn1-2", "note": "[Substrate N0]", "fluorescence intensity compared among substrates (in words)": "highest fluorescence intensity"}
{"system": "Gaussia luciferase mutant G2-F8", "assay": "Luminescence intensity of substrates with Gaussia luciferase mutant G2-F8", "format": "biochemical, Gaussia princeps", "conditions": "mutant G2-F8, among tested substrates", "description": "as §1, §2"}
{"molecule": "O=c1c(Cc2ccc(F)cc2)nc2c(Cc3ccccc3)[nH]c(-c3ccc(O)cc3)cn1-2", "note": "[f-CTZ]", "fluorescence intensity compared among substrates (in words)": "highest fluorescence intensity"}
{"system": "Pleuromamma xiphias luciferase mutant P26-95", "assay": "Luminescence intensity of substrates with Pleuromamma xiphias luciferase mutant P26-95", "format": "biochemical", "conditions": "mutant P26-95, among tested substrates", "description": "as §1\nMutant-Type Pleuromamma xiphias Luciferase P26-95: • d) P26-95: based on SEQ ID NO: 3, the following sites were mutated: G83A, and G84P.\nas §2"}
{"molecule": "O=c1c(Cc2ccc(O)cc2)nc2c(Cc3ccccc3)[nH]c(-c3cccc(O)c3)cn1-2", "note": "[Substrate N0]", "fluorescence intensity compared among substrates (in words)": "highest fluorescence intensity"}
